Values after ≈ are worked out from the molar mass of the structure shown.
Test: Solubility in water at room temperature and pH of about 7
Assay type: physicochemical

Row | solubility (pH 7, room temperature) | solubility in water (room temperature) | Structure (SMILES)
1 | 516 µg/mL (≈ 1310 µM) |  | N[C@@H]1CCCCN(c2c(F)cc3c(=O)c(C(=O)O)cn(C4CC4)c3c2Cl)C1 [amorphous besifloxacin free base, (R)-(+)-7-(3-amino-2,3,4,5,6,7-hexahydro-1H-azepin-1-yl)-1-cyclopropyl-8-chloro-6-fluoro-1,4-dihydro-4-oxoquinoline-3-carboxylic acid]
2 |  | 73.3 µg/mL (≈ 186 µM) | N[C@@H]1CCCCN(c2c(F)cc3c(=O)c(C(=O)O)cn(C4CC4)c3c2Cl)C1 [besifloxacin free base starting material, (R)-(+)-7-(3-amino-2,3,4,5,6,7-hexahydro-1H-azepin-1-yl)-1-cyclopropyl-8-chloro-6-fluoro-1,4-dihydro-4-oxoquinoline-3-carboxylic acid]

Reference: patent US8518935B2, “Amorphous besifloxacin solid” (Bausch & Lomb Incorporated, priority 2009, dated 2013)
